Results reported in paper PMC12134470 (International Journal of Nanomedicine, 2025).

Assays:
MDA-MB-468 = test: Antiproliferative activity, SRB assay; format: cell-based, human; details: 72 hours of exposure; tested 5–625 μM
[1] = cited from earlier work

In the case of CC(C)Cc1ccc([C@H](C)C(=O)O)cc1 [DXI, dexibuprofen], the “IC50 MDA-MB-468” value (MDA-MB-468) is listed as “did not express any cytotoxic effect” and the Water solubility [1] is listed as 68.4 µg/mL.
